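The compound was tested at five concentrations on cells cultured in 96-well plates, with a 48-hour exposure period. TGI is the concentration that stops growth completely.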
What follows are compounds tested on HOP-62 NSCLC (assay: NCI tumour cell line growth inhibition, 48 h).
Compound `Nc1nc(N)nc(CCCc2nc(N)nc(N)n2)n1` has a TGI of over 100 µM. Compound `COC(=O)C1(Cc2ccc3c(c2)CCC3)Cc2cc3c(cc2C1)CCC3` has a TGI of over 100 µM. Compound `Cc1cc(/N=C/c2ccc(C#N)cc2)n(-c2ccccc2)n1` has a TGI of over 100 µM. `COc1cc(OCc2ccc3nc(OC)c(OC)nc3c2)cc(OC)c1OC` gave a TGI of over 10 µM. For `CCCOC(=O)NC(C)C(=O)NC(CCC(=O)NC(CCCC(N)C(=O)O)C(=O)NC(C)C(=O)O)C(=O)O` (stereo not given), the TGI was over 100 µM. `COC(=O)C1(Cc2ccc3c(c2)CCC3)Cc2ccccc2C1=O` (stereo not given) was tested, and the TGI was 59.3 µM.

The compounds below were run on MDA-N (assay: NCI tumour cell line growth inhibition, 48 h).
With `COC(=O)c1cc(C)ccc1CC(Cc1ccc(C)cc1)C(=O)OC` (stereo not given) the TGI was over 100 µM. Compound `Nc1nc(N)nc(CCCc2nc(N)nc(N)n2)n1` has a TGI of over 100 µM. `COC(=O)C1(Cc2ccc3c(c2)CCC3)Cc2cc3c(cc2C1)CCC3` gave a TGI of over 100 µM. For `Cc1cc(/N=C/c2ccc(C#N)cc2)n(-c2ccccc2)n1`, the TGI was over 100 µM. Compound `COc1cc(OCc2ccc3nc(OC)c(OC)nc3c2)cc(OC)c1OC` has a TGI of over 10 µM. For `CCCOC(=O)NC(C)C(=O)NC(CCC(=O)NC(CCCC(N)C(=O)O)C(=O)NC(C)C(=O)O)C(=O)O` (stereo not given), the TGI was 44.6 µM. In the case of `COC(=O)C1(Cc2ccc3c(c2)CCC3)Cc2ccccc2C1=O` (stereo not given), the TGI is reported as 13.3 µM.

What follows are compounds tested on UACC-257 melanoma (assay: NCI tumour cell line growth inhibition, 48 h).
In the case of `COC(=O)c1cc(C)ccc1CC(Cc1ccc(C)cc1)C(=O)OC` (stereo not given), the TGI is reported as over 100 µM. Work on `Nc1nc(N)nc(CCCc2nc(N)nc(N)n2)n1` yielded a TGI of over 100 µM. Compound `COC(=O)C1(Cc2ccc3c(c2)CCC3)Cc2cc3c(cc2C1)CCC3` has a TGI of 62.2 µM. Compound `Cc1cc(/N=C/c2ccc(C#N)cc2)n(-c2ccccc2)n1` has a TGI of over 100 µM. `COc1cc(OCc2ccc3nc(OC)c(OC)nc3c2)cc(OC)c1OC` gave a TGI of over 10 µM. With `COC(=O)C1(Cc2ccc3c(c2)CCC3)Cc2ccccc2C1=O` (stereo not given) the TGI was 76 µM.

These compounds were tested on TK-10 renal (assay: NCI tumour cell line growth inhibition, 48 h).
`COC(=O)c1cc(C)ccc1CC(Cc1ccc(C)cc1)C(=O)OC` (stereo not given) gave a TGI of over 100 µM. In the case of `Nc1nc(N)nc(CCCc2nc(N)nc(N)n2)n1`, the TGI is reported as over 100 µM. Compound `COC(=O)C1(Cc2ccc3c(c2)CCC3)Cc2cc3c(cc2C1)CCC3` has a TGI of over 100 µM. `Cc1cc(/N=C/c2ccc(C#N)cc2)n(-c2ccccc2)n1` gave a TGI of over 100 µM. `COc1cc(OCc2ccc3nc(OC)c(OC)nc3c2)cc(OC)c1OC` gave a TGI of over 10 µM. With `CCCOC(=O)NC(C)C(=O)NC(CCC(=O)NC(CCCC(N)C(=O)O)C(=O)NC(C)C(=O)O)C(=O)O` (stereo not given) the TGI was over 100 µM. Work on `COC(=O)C1(Cc2ccc3c(c2)CCC3)Cc2ccccc2C1=O` (stereo not given) yielded a TGI of 55.9 µM.

These compounds were tested on K-562 leukemia (assay: NCI tumour cell line growth inhibition, 48 h).
With `COC(=O)c1cc(C)ccc1CC(Cc1ccc(C)cc1)C(=O)OC` (stereo not given) the TGI was over 38.7 µM. `Nc1nc(N)nc(CCCc2nc(N)nc(N)n2)n1` gave a TGI of over 100 µM. For `COC(=O)C1(Cc2ccc3c(c2)CCC3)Cc2cc3c(cc2C1)CCC3`, the TGI was over 100 µM. `Cc1cc(/N=C/c2ccc(C#N)cc2)n(-c2ccccc2)n1` was tested, and the TGI was over 100 µM. `COc1cc(OCc2ccc3nc(OC)c(OC)nc3c2)cc(OC)c1OC` was tested, and the TGI was over 10 µM. In the case of `COC(=O)C1(Cc2ccc3c(c2)CCC3)Cc2ccccc2C1=O` (stereo not given), the TGI is reported as 48.4 µM.

The compounds below were run on RXF 393 renal (assay: NCI tumour cell line growth inhibition, 48 h).
For `COC(=O)c1cc(C)ccc1CC(Cc1ccc(C)cc1)C(=O)OC` (stereo not given), the TGI was 11.5 µM. `Nc1nc(N)nc(CCCc2nc(N)nc(N)n2)n1` gave a TGI of over 100 µM. `COC(=O)C1(Cc2ccc3c(c2)CCC3)Cc2cc3c(cc2C1)CCC3` gave a TGI of 68.8 µM. `Cc1cc(/N=C/c2ccc(C#N)cc2)n(-c2ccccc2)n1` was tested, and the TGI was over 100 µM. `COc1cc(OCc2ccc3nc(OC)c(OC)nc3c2)cc(OC)c1OC` showed a TGI of over 10 µM.

These compounds were tested on ACHN renal (assay: NCI tumour cell line growth inhibition, 48 h).
With `COC(=O)c1cc(C)ccc1CC(Cc1ccc(C)cc1)C(=O)OC` (stereo not given) the TGI was over 100 µM. `Nc1nc(N)nc(CCCc2nc(N)nc(N)n2)n1` gave a TGI of over 100 µM. `COC(=O)C1(Cc2ccc3c(c2)CCC3)Cc2cc3c(cc2C1)CCC3` was tested, and the TGI was over 100 µM. Work on `Cc1cc(/N=C/c2ccc(C#N)cc2)n(-c2ccccc2)n1` yielded a TGI of over 100 µM. In the case of `COc1cc(OCc2ccc3nc(OC)c(OC)nc3c2)cc(OC)c1OC`, the TGI is reported as over 10 µM. Compound `CCCOC(=O)NC(C)C(=O)NC(CCC(=O)NC(CCCC(N)C(=O)O)C(=O)NC(C)C(=O)O)C(=O)O` (stereo not given) has a TGI of over 100 µM. For `COC(=O)C1(Cc2ccc3c(c2)CCC3)Cc2ccccc2C1=O` (stereo not given), the TGI was over 100 µM.

Each compound was assayed on CCRF-CEM leukemia (assay: NCI tumour cell line growth inhibition, 48 h).
In the case of `COC(=O)c1cc(C)ccc1CC(Cc1ccc(C)cc1)C(=O)OC` (stereo not given), the TGI is reported as over 100 µM. In the case of `Nc1nc(N)nc(CCCc2nc(N)nc(N)n2)n1`, the TGI is reported as over 100 µM. Compound `COC(=O)C1(Cc2ccc3c(c2)CCC3)Cc2cc3c(cc2C1)CCC3` has a TGI of 47.8 µM. `Cc1cc(/N=C/c2ccc(C#N)cc2)n(-c2ccccc2)n1` showed a TGI of over 100 µM. `COc1cc(OCc2ccc3nc(OC)c(OC)nc3c2)cc(OC)c1OC` showed a TGI of over 10 µM. Compound `CCCOC(=O)NC(C)C(=O)NC(CCC(=O)NC(CCCC(N)C(=O)O)C(=O)NC(C)C(=O)O)C(=O)O` (stereo not given) has a TGI of 36.9 µM.

Reference: PubChem BioAssay (NCI)
